According to patent US12583815B2, “Inhibitors of YAP/TAZ-TEAD oncoproteins, synthesis and use thereof” (BRIDGENE BIOSCIENCES, INC., priority 2020, dated 2026):
pIC50: −log10 of the molar value.

These molecules were tested against T1, TEAD1 (Homo sapiens, UniProt P28347) (assay: TEAD1-Luciferase reporter assay (MCF-7 cell-based TEAD1-Luc assay)). Settings: cells treated with compound overnight, luciferase chemiluminescence readout.
T1 construct: endogenous in cells; host or cells: MCF-7
T1 sequence (P28347 whole entry): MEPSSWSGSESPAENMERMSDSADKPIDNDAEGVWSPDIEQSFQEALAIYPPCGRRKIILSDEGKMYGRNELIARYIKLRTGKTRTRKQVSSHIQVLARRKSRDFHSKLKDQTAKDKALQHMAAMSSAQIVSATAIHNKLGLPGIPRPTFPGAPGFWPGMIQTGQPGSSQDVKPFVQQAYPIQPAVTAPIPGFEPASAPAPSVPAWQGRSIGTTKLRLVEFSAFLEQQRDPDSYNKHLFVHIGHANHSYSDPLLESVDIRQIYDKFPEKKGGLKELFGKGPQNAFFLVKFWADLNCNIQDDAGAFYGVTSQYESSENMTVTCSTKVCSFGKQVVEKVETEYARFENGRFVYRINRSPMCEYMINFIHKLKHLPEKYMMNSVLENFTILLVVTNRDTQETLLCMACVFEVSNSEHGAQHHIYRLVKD
Method: TEAD1-Luciferase Reporter Assay to Characterize the Pharmacological Properties of the Tead1 Covalent Inhibitors
FIG. 1 is a schematic illustration of the mechanism of TEAD1 inhibition by the disclosed compounds, which is the theoretical basis for the development of a TEAD-YAP/TAZ cell-based functional assay to characterize the pharmacological properties of the synthesized inhibitor compounds. The MCF-7 cell-based TEAD1-Luc assay for the IC50 measurement was performed as below. Compounds 2, 4, 5, and 7, representing different chemical scaffolds, were characterized. About 200 μL of culture medium was placed in each of the 10^4 cell/well in a 96-well plate. The next day the cells were treated with the synthesized compounds for overnight. The luciferase activity was measured with a chemiluminescent assay kit. Specifically, the plate was equilibrated at room temperature. […] and 50 μL of the medium was left inside. To each well was added 50 μL Luciferase reagents. The plates were gently rocked for more than about 15 minutes at room temperature. The luminescence signal was then read and recorded. Table 2 below summarizes the measured IC50 values for the disclosed compounds.
`C=CC(=O)N[C@@H]1CC[C@H](Oc2cccc(C(F)(F)F)c2)C1` (single isomer, unassigned) [Compound 41, N-((1R*,3S*)-3-(3-(trifluoromethyl)phenoxy)cyclopentyl)acrylamide] showed a pIC50 of no less than 7.00.
`C=CC(=O)N[C@H]1CC[C@@H](Oc2cccc(C(F)(F)F)c2)C1` (single isomer, unassigned) [Compound 42, N-((1S*,3R*)-3-(3-(trifluoromethyl)phenoxy)cyclopentyl)acrylamide] was tested, and the pIC50 was 5.30 to 7.00.
`C#Cc1cccc(Oc2ccccc2NC(=O)CCl)c1` [Compound 1] showed a pIC50 of no more than 5.30.
`C#Cc1cccc(Oc2cccc(NC(=O)C=C)c2)c1` [Compound 2] showed a pIC50 of 5.30 to 7.00.
`C#Cc1cccc(Oc2ccc(NC(=O)C=C)cc2)c1` [Compound 3] showed a pIC50 of no more than 5.30.
For `C=CC(=O)Nc1cccc(Oc2cccc(C(F)(F)F)c2)c1` [Compound 4], the pIC50 was no less than 7.00.
Work on `C#CCCCO/N=C1\CCCc2cc(NC(=O)C=C)ccc21` [Compound 5] yielded a pIC50 of no more than 5.30.
With `C=CC(=O)Nc1ccc2c(c1)CCC/C2=N\OCCCCC` [Compound 6] the pIC50 was no more than 5.30.
`C#CCCCO/N=C1/CCc2cc(NC(=O)C=C)ccc21` [Compound 7] was tested, and the pIC50 was no more than 5.30.
In the case of `C=CC(=O)Nc1ccc2c(c1)CC/C2=N/OCCCCC` [Compound 8], the pIC50 was no more than 5.30.
Work on `C=CC(=O)Nc1cccc(Oc2cccc(OC)c2)c1` [Compound 9, N-(3-(3-methoxyphenoxy)phenyl)acrylamide] yielded a pIC50 of no less than 7.00.
`C=CC(=O)Nc1cccc(Oc2csc(C(F)(F)F)c2)c1` [Compound 10, N-(3-((5-(trifluoromethyl)thiophen-3-yl)oxy)phenyl)acrylamide] was tested, and the pIC50 was no less than 7.00.
`C=CC(=O)Nc1ccc(Oc2cccc(C(F)(F)F)c2)s1` [Compound 11, N-(5-(3-(trifluoromethyl)phenoxy)thiophen-2-yl)acrylamide] was tested, and the pIC50 was no less than 7.00.
For `C=CC(=O)Nc1cc(F)cc(Oc2ccc(C(F)(F)F)cc2)c1` [Compound 12, N-(3-fluoro-5-(4-(trifluoromethyl)phenoxy)phenyl)acrylamide], the pIC50 was no less than 7.00.
`C=CC(=O)Nc1cccc(Oc2cc(C(F)(F)F)ccn2)c1` [Compound 13, N-(3-((4-(trifluoromethyl)pyridin-2-yl)oxy)phenyl)acrylamide] gave a pIC50 of no less than 7.00.
`C=CC(=O)Nc1cccc(Oc2ccc(C(F)(F)F)cn2)c1` [Compound 14, N-(3-((5-(trifluoromethyl)pyridin-2-yl)oxy)phenyl)acrylamide] gave a pIC50 of no less than 7.00.
In the case of `CCCCCO/N=C1\CCc2cc(NC(=O)/C=C/CN(C)C)ccc21` [Compound 15, (E)-4-(dimethylamino)-N—((E)-1-((pentyloxy)imino)-2,3-dihydro-1H-inden-5-yl)but-2-enamide], the pIC50 was no less than 7.00.
`C=CC(=O)Nc1ccc2c(c1)OCC/C2=N\OCCCCC` [Compound 16, (E)-N-(4-((pentyloxy)imino)chroman-7-yl)acrylamide] gave a pIC50 of no less than 7.00.
`C=CC(=O)Nc1ccc2cc(OCCCC)ccc2c1` [Compound 17, N-(6-butoxynaphthalen-2-yl)prop-2-enamide] showed a pIC50 of no less than 7.00.
`C=CC(=O)Nc1ccc2nc(OCCCC)ccc2c1` [Compound 18, N-(2-butoxyquinolin-6-yl)acrylamide] gave a pIC50 of no less than 7.00.
Molecule `C=CC(=O)Nc1ccc2c(OCCCCC)nccc2c1` [Compound 19, N-(1-(pentyloxy)isoquinolin-6-yl)acrylamide] has a pIC50 of no less than 7.00.
For `C=CC(=O)Nc1ccc2c(OCCCCC)cccc2c1` [Compound 20, N-(5-(pentyloxy)naphthalen-2-yl)acrylamide], the pIC50 was no less than 7.00.
Work on `C=CC(=O)Nc1ccc2c(Oc3ccc(C(F)(F)F)cn3)cccc2c1` [Compound 21, N-(5-((5-(trifluoromethyl)pyridin-2-yl)oxy)naphthalen-2-yl)acrylamide] yielded a pIC50 of no less than 7.00.
`C=CC(=O)Nc1ccc(-c2cc(C(F)(F)F)on2)c(C)c1` [Compound 22, N-(3-methyl-4-(5-(trifluoromethyl)isoxazol-3-yl)phenyl)acrylamide] was tested, and the pIC50 was no less than 7.00.
With `C=CC(=O)Nc1ccc(-c2cc(C(F)(F)F)on2)c(Cl)c1` [Compound 23, N-(3-chloro-4-(5-(trifluoromethyl)isoxazol-3-yl)phenyl)acrylamide] the pIC50 was no less than 7.00.
With `C=CC(=O)Nc1ccc(-c2ccn(CCCCC)n2)cc1` [Compound 24, N-(4-(1-pentyl-1H-pyrazol-3-yl)phenyl)acrylamide] the pIC50 was no less than 7.00.
Work on `C=CC(=O)Nc1ccc2c(c1)CCc1cn(CCCCC)nc1-2` [Compound 25] yielded a pIC50 of 5.30 to 7.00.
In the case of `C=CC(=O)Nc1ccc(-c2cc(CCCC)on2)cc1` [Compound 26, N-(4-(5-butylisoxazol-3-yl)phenyl)acrylamide], the pIC50 was no less than 7.00.
Molecule `C=CC(=O)Nc1ccc2c(c1)CCc1c-2noc1CCCC` [Compound 27, N-(3-butyl-4,5-dihydronaphtho[1,2-c]isoxazol-7-yl)acrylamide] has a pIC50 of 5.30 to 7.00.
For `C=CC(=O)Nc1ccc(-c2cc(C(F)(F)F)on2)cc1` [Compound 28, N-(4-(5-(trifluoromethyl)isoxazol-3-yl)phenyl)acrylamide], the pIC50 was no less than 7.00.
With `C=C(F)C(=O)Nc1ccc2c(c1)CCC/C2=N\OCCCCC` [Compound 29, (E)-2-fluoro-N-(5-((pentyloxy)imino)-5,6,7,8-tetrahydronaphthalen-2-yl)acrylamide] the pIC50 was 5.30 to 7.00.
For `C=CC(=O)Nc1ccc(-c2cc(C3CC3)on2)cc1` [Compound 30, N-(4-(5-cyclopropylisoxazol-3-yl)phenyl)acrylamide], the pIC50 was 5.30 to 7.00.
With `C=CC(=O)Nc1ccc(-c2nocc2C(F)(F)F)cc1` [Compound 31, N-(4-(4-(trifluoromethyl)isoxazol-3-yl)phenyl)acrylamide] the pIC50 was no less than 7.00.
For `C=CC(=O)Nc1ccc(-c2cc(C(F)(F)F)no2)c(Cl)c1` [Compound 32, N-(3-chloro-4-(3-(trifluoromethyl)isoxazol-5-yl)phenyl)acrylamide], the pIC50 was no less than 7.00.
`C=CC(=O)Nc1ccc(-c2noc(C(F)(F)F)n2)c(Cl)c1` [Compound 33, N-(3-chloro-4-(5-(trifluoromethyl)-1,2,4-oxadiazol-3-yl)phenyl)acrylamide] showed a pIC50 of no less than 7.00.
For `C=CC(=O)Nc1ccc(-n2cc(C(F)(F)F)nn2)c(Cl)c1` [Compound 34, N-(3-chloro-4-(4-(trifluoromethyl)-1H-1,2,3-triazol-1-yl)phenyl)acrylamide], the pIC50 was no less than 7.00.
With `C=CC(=O)Nc1ccc(-n2ncc(C(F)(F)F)n2)c(Cl)c1` [Compound 35, N-(3-chloro-4-(4-(trifluoromethyl)-2H-1,2,3-triazol-2-yl)phenyl)acrylamide] the pIC50 was no less than 7.00.
Work on `C=CC(=O)Nc1cc(F)cc(Oc2cccc(C(F)(F)F)c2)c1` [Compound 36, N-(3-fluoro-5-(3-(trifluoromethyl)phenoxy)phenyl)acrylamide] yielded a pIC50 of no less than 7.00.
`C=CC(=O)Nc1cc(Oc2cccc(C(F)(F)F)c2)ccc1F` [Compound 37, N-(2-fluoro-5-(3-(trifluoromethyl)phenoxy)phenyl)acrylamide] was tested, and the pIC50 was no less than 7.00.
`C=CC(=O)Nc1cccc(Oc2ccc(C(F)(F)F)cc2)c1` [Compound 38, N-(3-(4-(trifluoromethyl)phenoxy)phenyl)acrylamide] showed a pIC50 of no less than 7.00.
Molecule `C=CC(=O)NC1COCC(Oc2cccc(C(F)(F)F)c2)C1` (stereo not drawn) [Compound 39, N-(5-(3-(trifluoromethyl)phenoxy)tetrahydro-2H-pyran-3-yl)acrylamide] has a pIC50 of 5.30 to 7.00.
`C=CC(=O)Nc1cccc(OC2CCC(F)(F)CC2)c1` [Compound 40, N-(3-((4,4-difluorocyclohexyl)oxy)phenyl)acrylamide] was tested, and the pIC50 was no less than 7.00.
